Test results taken from PubChem BioAssay AID743088 (The Scripps Research Institute Molecular Screening Center, 2013).
Active and inactive are the calls of the source.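 The calls were made as follows: active = binding inhibited by at least 50%, or stimulated by at least 50%, shown as inhibition of -50% or lower; inactive = the rest.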

Tests used:
Assay in all cases: radioligand displacement at 30 receptors – biochemical, Panlabs HitProfilingScreen, selectivity assay for AVPR1a antagonist project, profiling panel (AID 743088)
Sodium Channel Site 2 = conditions: 30 targets, at 10 µM, active compounds read high
Cannabinoid CB1 = conditions: 30 targets, at 10 µM, active compounds read high
Calcium Channel L-Type = conditions: 30 targets, Dihydropyridine site, at 10 µM, active compounds read high
[1] = system: Transporter Norepinephrine (NET); conditions: 30 targets, at 10 µM, active compounds read high
Adenosine A1 = conditions: 30 targets, at 10 µM, active compounds read high
Adrenergic alpha1A = conditions: 30 targets, at 10 µM, active compounds read high
Dopamine D2 = conditions: 30 targets, at 10 µM, active compounds read high
Prostanoid EP4 = conditions: 30 targets, at 10 µM, active compounds read high
[2] = biological target: 5-hydroxytryptamine receptor 2B (Homo sapiens) (UniProt P41595); conditions: 30 targets, Serotonin (5-Hydroxytryptamine) 5-HT2B, at 10 µM, active compounds read high
Chain of 5-hydroxytryptamine receptor 2B (Homo sapiens) (P41595 whole entry, looked up): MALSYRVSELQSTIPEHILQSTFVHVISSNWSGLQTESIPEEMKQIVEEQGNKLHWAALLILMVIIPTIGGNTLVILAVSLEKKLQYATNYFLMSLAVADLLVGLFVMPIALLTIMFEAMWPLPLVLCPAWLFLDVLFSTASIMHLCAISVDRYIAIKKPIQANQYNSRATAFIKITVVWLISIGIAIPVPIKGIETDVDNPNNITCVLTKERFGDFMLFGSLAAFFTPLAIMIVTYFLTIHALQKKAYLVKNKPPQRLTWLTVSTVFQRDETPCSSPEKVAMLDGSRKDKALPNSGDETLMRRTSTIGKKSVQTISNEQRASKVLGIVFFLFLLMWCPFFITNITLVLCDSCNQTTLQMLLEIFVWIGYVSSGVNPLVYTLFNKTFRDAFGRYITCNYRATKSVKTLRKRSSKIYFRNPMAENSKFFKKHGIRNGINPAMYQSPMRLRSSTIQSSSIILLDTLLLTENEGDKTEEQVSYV

Glutamate NMDA = conditions: 30 targets, Phencyclidine site, at 10 µM, active compounds read high
Sigma 1 = conditions: 30 targets, at 10 µM, active compounds read high
[3] = biological target: D(1A) dopamine receptor (Homo sapiens) (UniProt P21728); conditions: 30 targets, Dopamine D1, at 10 µM, active compounds read high
Chain of D(1A) dopamine receptor (Homo sapiens) (P21728 whole entry, looked up): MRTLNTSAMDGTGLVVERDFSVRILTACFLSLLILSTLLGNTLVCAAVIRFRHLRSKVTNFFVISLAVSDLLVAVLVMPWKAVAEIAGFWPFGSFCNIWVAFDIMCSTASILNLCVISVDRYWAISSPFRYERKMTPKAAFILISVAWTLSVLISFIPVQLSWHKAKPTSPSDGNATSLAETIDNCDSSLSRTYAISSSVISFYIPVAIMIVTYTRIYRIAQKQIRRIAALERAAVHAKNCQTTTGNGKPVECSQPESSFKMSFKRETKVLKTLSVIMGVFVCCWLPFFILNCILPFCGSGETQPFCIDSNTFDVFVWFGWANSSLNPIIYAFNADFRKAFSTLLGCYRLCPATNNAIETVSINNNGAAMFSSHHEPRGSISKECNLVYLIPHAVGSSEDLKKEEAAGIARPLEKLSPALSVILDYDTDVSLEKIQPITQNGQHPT

[4] = system: Alpha-2A adrenergic receptor (Homo sapiens) + Histamine H1 receptor (Homo sapiens) + Mu-type opioid receptor (Homo sapiens); conditions: 30 targets, at 10 µM, active compounds read high
Adenosine A2A = conditions: 30 targets, at 10 µM, active compounds read high
GABAA Central = conditions: 30 targets, at 10 µM, active compounds read high
[5] = biological target: Muscarinic acetylcholine receptor M3 (Homo sapiens) (UniProt P20309); conditions: 30 targets, at 10 µM, active compounds read high
Chain of Muscarinic acetylcholine receptor M3 (Homo sapiens) (P20309 whole entry, looked up): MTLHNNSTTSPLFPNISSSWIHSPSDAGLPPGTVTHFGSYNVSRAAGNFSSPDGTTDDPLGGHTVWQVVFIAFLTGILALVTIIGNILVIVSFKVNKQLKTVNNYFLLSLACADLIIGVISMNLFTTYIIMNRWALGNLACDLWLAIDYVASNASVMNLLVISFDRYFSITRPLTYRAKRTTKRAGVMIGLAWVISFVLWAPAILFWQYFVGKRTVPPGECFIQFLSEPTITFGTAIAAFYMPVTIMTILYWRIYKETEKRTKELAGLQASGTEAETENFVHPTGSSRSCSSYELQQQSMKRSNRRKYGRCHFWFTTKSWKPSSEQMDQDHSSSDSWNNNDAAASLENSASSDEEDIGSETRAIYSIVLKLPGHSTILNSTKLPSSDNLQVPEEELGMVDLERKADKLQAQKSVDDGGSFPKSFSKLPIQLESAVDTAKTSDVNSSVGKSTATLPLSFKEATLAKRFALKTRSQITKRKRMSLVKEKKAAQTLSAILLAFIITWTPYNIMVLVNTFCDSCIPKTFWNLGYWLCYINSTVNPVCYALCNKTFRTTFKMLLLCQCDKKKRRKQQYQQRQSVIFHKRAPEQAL

[6] = biological target: Alpha-2A adrenergic receptor (Homo sapiens) (UniProt P08913); conditions: 30 targets, Adrenergic alpha2A, at 10 µM, active compounds read high
Chain of Alpha-2A adrenergic receptor (Homo sapiens) (P08913 whole entry, looked up): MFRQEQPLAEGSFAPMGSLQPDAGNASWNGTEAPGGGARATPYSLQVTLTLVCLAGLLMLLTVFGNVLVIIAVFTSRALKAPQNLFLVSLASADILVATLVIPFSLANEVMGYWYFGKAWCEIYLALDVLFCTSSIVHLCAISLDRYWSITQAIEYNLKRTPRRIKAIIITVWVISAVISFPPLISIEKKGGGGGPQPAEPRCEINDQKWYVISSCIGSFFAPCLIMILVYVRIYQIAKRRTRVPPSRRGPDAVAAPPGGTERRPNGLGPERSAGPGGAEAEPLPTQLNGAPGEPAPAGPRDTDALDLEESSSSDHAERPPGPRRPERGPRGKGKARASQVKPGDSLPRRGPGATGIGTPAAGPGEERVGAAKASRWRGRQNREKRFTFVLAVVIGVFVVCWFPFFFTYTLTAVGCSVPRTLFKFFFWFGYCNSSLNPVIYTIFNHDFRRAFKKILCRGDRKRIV

Adrenergic alpha1B = conditions: 30 targets, at 10 µM, active compounds read high
Nicotinic Acetylcholine = conditions: 30 targets, at 10 µM, active compounds read high
[7] = biological target: Muscarinic acetylcholine receptor M2 (Homo sapiens) (UniProt P08172); conditions: 30 targets, at 10 µM, active compounds read high
Chain of Muscarinic acetylcholine receptor M2 (Homo sapiens) (P08172 whole entry, looked up): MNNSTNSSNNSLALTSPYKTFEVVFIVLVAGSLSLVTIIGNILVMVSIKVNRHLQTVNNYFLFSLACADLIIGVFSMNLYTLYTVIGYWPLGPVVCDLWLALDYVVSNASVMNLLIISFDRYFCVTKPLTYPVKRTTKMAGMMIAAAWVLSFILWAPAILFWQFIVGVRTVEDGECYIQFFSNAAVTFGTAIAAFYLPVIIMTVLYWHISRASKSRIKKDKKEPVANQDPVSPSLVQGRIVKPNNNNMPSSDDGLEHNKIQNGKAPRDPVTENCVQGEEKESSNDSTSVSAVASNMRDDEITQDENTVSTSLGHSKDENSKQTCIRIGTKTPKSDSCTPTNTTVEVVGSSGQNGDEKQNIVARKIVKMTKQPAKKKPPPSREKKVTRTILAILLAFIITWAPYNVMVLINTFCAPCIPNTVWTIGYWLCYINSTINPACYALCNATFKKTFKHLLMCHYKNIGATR

Opiate mu (OP3, MOP) = conditions: 30 targets, at 10 µM, active compounds read high
[8] = biological target: Beta-2 adrenergic receptor (Homo sapiens) (UniProt P07550); conditions: 30 targets, Adrenergic beta2, at 10 µM, active compounds read high
Chain of Beta-2 adrenergic receptor (Homo sapiens) (P07550 whole entry, looked up): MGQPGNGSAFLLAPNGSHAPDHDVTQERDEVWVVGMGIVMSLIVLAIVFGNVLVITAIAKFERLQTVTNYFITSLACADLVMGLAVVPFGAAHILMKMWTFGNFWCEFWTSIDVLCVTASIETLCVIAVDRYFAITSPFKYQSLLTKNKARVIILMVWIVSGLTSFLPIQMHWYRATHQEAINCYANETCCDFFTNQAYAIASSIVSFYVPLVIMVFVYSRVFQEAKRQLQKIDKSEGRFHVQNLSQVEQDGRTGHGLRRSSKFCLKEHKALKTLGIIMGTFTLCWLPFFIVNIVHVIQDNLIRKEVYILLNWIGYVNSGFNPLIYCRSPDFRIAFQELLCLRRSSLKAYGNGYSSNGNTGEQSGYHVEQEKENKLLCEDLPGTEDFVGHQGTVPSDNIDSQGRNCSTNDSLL

Histamine H1 = conditions: 30 targets, at 10 µM, active compounds read high
Adrenergic beta1 = conditions: 30 targets, at 10 µM, active compounds read high
[9] = biological target: Voltage-gated inwardly rectifying potassium channel KCNH2 (Homo sapiens) (UniProt Q12809); conditions: 30 targets, Potassium Channel hERG, at 10 µM, active compounds read high
Chain of Voltage-gated inwardly rectifying potassium channel KCNH2 (Homo sapiens) (Q12809 whole entry, looked up): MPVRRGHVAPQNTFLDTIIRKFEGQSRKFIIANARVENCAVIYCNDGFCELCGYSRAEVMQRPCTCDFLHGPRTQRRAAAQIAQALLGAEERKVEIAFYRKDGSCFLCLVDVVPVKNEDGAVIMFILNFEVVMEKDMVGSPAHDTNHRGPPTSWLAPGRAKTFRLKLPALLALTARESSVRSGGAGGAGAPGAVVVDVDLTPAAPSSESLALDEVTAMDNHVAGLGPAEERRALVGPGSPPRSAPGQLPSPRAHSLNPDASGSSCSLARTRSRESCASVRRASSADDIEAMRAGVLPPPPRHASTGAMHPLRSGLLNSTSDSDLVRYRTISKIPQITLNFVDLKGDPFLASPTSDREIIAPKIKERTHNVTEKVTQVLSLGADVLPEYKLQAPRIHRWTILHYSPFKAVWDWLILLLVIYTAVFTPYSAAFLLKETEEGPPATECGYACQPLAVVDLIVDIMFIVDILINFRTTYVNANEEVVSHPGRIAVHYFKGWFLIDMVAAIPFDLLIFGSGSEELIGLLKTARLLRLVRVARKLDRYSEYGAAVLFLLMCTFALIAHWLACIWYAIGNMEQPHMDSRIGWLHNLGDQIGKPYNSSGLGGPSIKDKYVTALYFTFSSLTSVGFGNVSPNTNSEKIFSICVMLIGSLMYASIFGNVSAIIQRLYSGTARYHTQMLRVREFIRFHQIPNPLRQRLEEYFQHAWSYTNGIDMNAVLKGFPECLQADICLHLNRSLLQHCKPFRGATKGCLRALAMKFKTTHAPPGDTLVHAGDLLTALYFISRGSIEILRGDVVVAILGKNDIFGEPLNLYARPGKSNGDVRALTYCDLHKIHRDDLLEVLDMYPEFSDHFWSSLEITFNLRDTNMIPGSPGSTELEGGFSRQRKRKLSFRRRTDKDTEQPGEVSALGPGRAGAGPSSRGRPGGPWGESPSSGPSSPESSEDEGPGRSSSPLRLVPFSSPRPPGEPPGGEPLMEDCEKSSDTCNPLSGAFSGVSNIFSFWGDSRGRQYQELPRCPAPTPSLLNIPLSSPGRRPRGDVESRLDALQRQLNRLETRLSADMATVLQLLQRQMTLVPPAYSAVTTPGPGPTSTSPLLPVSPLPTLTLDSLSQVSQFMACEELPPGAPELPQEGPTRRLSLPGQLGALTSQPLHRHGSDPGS

In the case of `O=C(C1CCN(c2ccc(Cl)cn2)CC1)N(CC1CC1)c1ccc(Cl)cc1`, the inhibition of binding (Sodium Channel Site 2) is reported as 35% (inactive), the inhibition of binding (Cannabinoid CB1) is reported as 48% (inactive) and the inhibition of binding (Calcium Channel L-Type) is reported as 44% (inactive). For the same compound, the inhibition of binding [1] was 47% (inactive), the inhibition of binding (Adenosine A1) was -4% (inactive) and the inhibition of binding (Adrenergic alpha1A) was 23% (inactive). For the same compound, the inhibition of binding (Dopamine D2) was 1% (inactive), the inhibition of binding (Prostanoid EP4) was 31% (inactive) and the inhibition of binding [2] was 36% (inactive). The inhibition of binding (Glutamate NMDA) was 5% (inactive), the inhibition of binding (Sigma 1) was 61% and the inhibition of binding [3] was -6% (inactive). For the same compound, the inhibition of binding [4] was 6% (inactive), the inhibition of binding (Adenosine A2A) was 7% (inactive) and the inhibition of binding (GABAA Central; Flunitrazepam site) was -6% (inactive). The inhibition of binding (GABAA Central; Muscimol site) was 7% (inactive), the inhibition of binding [5] was -2% (inactive) and the inhibition of binding [6] was 8% (inactive). For the same compound, the inhibition of binding (Adrenergic alpha1B) was -15% (inactive), the inhibition of binding (Nicotinic Acetylcholine) was -15% (inactive) and the inhibition of binding [7] was -5% (inactive). The inhibition of binding (Opiate mu (OP3, MOP)) was 23% (inactive), the inhibition of binding [8] was 5% (inactive) and the inhibition of binding (Histamine H1) was 12% (inactive). For the same compound, the inhibition of binding (Adrenergic beta1) was 12% (inactive) and the inhibition of binding [9] was 22% (inactive).
